Data published in ChEMBL document CHEMBL3885881, “DrugMatrix”.

Organism: Rattus norvegicus
Experiment: DrugMatrix - Regimen: Daily Repeat
Format: toxicity, organism-based, Sprague-Dawley
Set-up: regimen Daily Repeat, gender Male, age 6-8 weeks
Conditions: in vivo, po, route oral GAVAGE, vehicle .5 % CMC; for ABSOLUTE BASOPHIL / ABSOLUTE EOSINOPHIL / ABSOLUTE LYMPHOCYTE / ABSOLUTE MONOCYTE / ABSOLUTE SEGMENTED NEUTROPHIL / BASOPHIL / EOSINOPHIL / ERYTHROCYTE COUNT / HEMATOCRIT / HEMOGLOBIN / LEUKOCYTE COUNT / LYMPHOCYTE / MEAN CORPUSCULAR HEMOGLOBIN / MEAN CORPUSCULAR HEMOGLOBIN CONCENTRATION / MONOCYTE / NEUTROPHIL / NUCLEATED RED BLOOD CELLS / PLATELET COUNT: tissue Blood; for ALANINE AMINOTRANSFERASE / ALBUMIN / ALKALINE PHOSPHATASE / ASPARTATE AMINOTRANSFERASE / BLOOD UREA NITROGEN / CARBON DIOXIDE / CHLORIDE / CHOLESTEROL / CREATINE PHOSPHOKINASE / CREATININE / GLUCOSE / LACTATE DEHYDROGENASE / LIPASE / PHOSPHORUS / POTASSIUM / SODIUM / TOTAL BILIRUBIN / TOTAL PROTEIN / URIC ACID: tissue Plasma
[1] = 0 mg/kg, 72 h, dose level Control, time 3 day
[2] = 0 mg/kg, 120 h, dose level Control, time 5 day
[3] = 1100 mg/kg, 72 h, dose level High, time 3 day
[4] = 1100 mg/kg, 120 h, dose level High, time 5 day

C[C@H]1[C@H](NC(=O)/C(=N\OC(C)(C)C(=O)O)c2csc(N)n2)C(=O)N1S(=O)(=O)O [AZTREONAM]
ABSOLUTE BASOPHIL [1]: 0 CELLS/uL | ABSOLUTE EOSINOPHIL [1]: 222.83 CELLS/uL | ABSOLUTE LYMPHOCYTE [1]: 14453 CELLS/uL | ABSOLUTE MONOCYTE [1]: 0 CELLS/uL | ABSOLUTE SEGMENTED NEUTROPHIL [1]: 1490.83 CELLS/uL | BASOPHIL [1]: 0% | EOSINOPHIL [1]: 1.33% | ERYTHROCYTE COUNT [1]: 5.76 x10E6/uL | HEMATOCRIT [1]: 36.52% | HEMOGLOBIN [1]: 13.45 G/DL | LEUKOCYTE COUNT [1]: 16.17 x10E3/uL | LYMPHOCYTE [1]: 89.33% | MEAN CORPUSCULAR HEMOGLOBIN [1]: 23.37 pg | MEAN CORPUSCULAR HEMOGLOBIN CONCENTRATION [1]: 36.85 G/DL | MONOCYTE [1]: 0% | NEUTROPHIL [1]: 9.33% | NUCLEATED RED BLOOD CELLS [1]: 0 /100WBC | PLATELET COUNT [1]: 1239.5 x10E3/uL | ALANINE AMINOTRANSFERASE [1]: 43.83 u/L | ALBUMIN [1]: 4.27 G/DL | ALKALINE PHOSPHATASE [1]: 398.83 u/L | ASPARTATE AMINOTRANSFERASE [1]: 81.17 u/L | BLOOD UREA NITROGEN [1]: 17.67 mg/dL | CARBON DIOXIDE [1]: 27.5 mmol/L | CHLORIDE [1]: 99.17 MEQ/L | CHOLESTEROL [1]: 74 mg/dL | CREATINE PHOSPHOKINASE [1]: 331.5 u/L | CREATININE [1]: 0.2 mg/dL | GLUCOSE [1]: 171.33 mg/dL | LACTATE DEHYDROGENASE [1]: 241.67 u/L | LIPASE [1]: 9.5 u/L | PHOSPHORUS [1]: 12.25 mg/dL | POTASSIUM [1]: 6.33 MEQ/L | SODIUM [1]: 141.28 MEQ/L | TOTAL BILIRUBIN [1]: 0.15 mg/dL | TOTAL PROTEIN [1]: 5.98 G/DL | URIC ACID [1]: 1.63 mg/dL | ABSOLUTE BASOPHIL [2]: 0 CELLS/uL | ABSOLUTE EOSINOPHIL [2]: 148.67 CELLS/uL | ABSOLUTE LYMPHOCYTE [2]: 16020.5 CELLS/uL | ABSOLUTE MONOCYTE [2]: 29.17 CELLS/uL | ABSOLUTE SEGMENTED NEUTROPHIL [2]: 1468.33 CELLS/uL | BASOPHIL [2]: 0% | EOSINOPHIL [2]: 1% | ERYTHROCYTE COUNT [2]: 5.78 x10E6/uL | HEMATOCRIT [2]: 35.77% | HEMOGLOBIN [2]: 13.4 G/DL | LEUKOCYTE COUNT [2]: 17.67 x10E3/uL | LYMPHOCYTE [2]: 90.5% | MEAN CORPUSCULAR HEMOGLOBIN [2]: 23.22 pg | MEAN CORPUSCULAR HEMOGLOBIN CONCENTRATION [2]: 37.47 G/DL | MONOCYTE [2]: 0.17% | NEUTROPHIL [2]: 8.33% | NUCLEATED RED BLOOD CELLS [2]: 0.17 /100WBC | PLATELET COUNT [2]: 1255.5 x10E3/uL | ALANINE AMINOTRANSFERASE [2]: 46.5 u/L | ALBUMIN [2]: 4.38 G/DL | ALKALINE PHOSPHATASE [2]: 336 u/L | ASPARTATE AMINOTRANSFERASE [2]: 76.5 u/L | BLOOD UREA NITROGEN [2]: 20 mg/dL | CARBON DIOXIDE [2]: 27.5 mmol/L | CHLORIDE [2]: 101 MEQ/L | CHOLESTEROL [2]: 71.33 mg/dL | CREATINE PHOSPHOKINASE [2]: 231.83 u/L | CREATININE [2]: 0.37 mg/dL | GLUCOSE [2]: 168.83 mg/dL | LACTATE DEHYDROGENASE [2]: 174 u/L | LIPASE [2]: 8.67 u/L | PHOSPHORUS [2]: 11.48 mg/dL | POTASSIUM [2]: 6.82 MEQ/L | SODIUM [2]: 143.8 MEQ/L | TOTAL BILIRUBIN [2]: 0.2 mg/dL | TOTAL PROTEIN [2]: 5.98 G/DL | URIC ACID [2]: 1.83 mg/dL | ABSOLUTE BASOPHIL [3]: 0 CELLS/uL | ABSOLUTE EOSINOPHIL [3]: 113.67 CELLS/uL | ABSOLUTE LYMPHOCYTE [3]: 10636 CELLS/uL | ABSOLUTE MONOCYTE [3]: 74.67 CELLS/uL | ABSOLUTE SEGMENTED NEUTROPHIL [3]: 842.33 CELLS/uL | BASOPHIL [3]: 0% | EOSINOPHIL [3]: 1% | ERYTHROCYTE COUNT [3]: 5.33 x10E6/uL | HEMATOCRIT [3]: 34.77% | HEMOGLOBIN [3]: 12.97 G/DL | LEUKOCYTE COUNT [3]: 11.67 x10E3/uL | LYMPHOCYTE [3]: 91% | MEAN CORPUSCULAR HEMOGLOBIN [3]: 24.4 pg | MEAN CORPUSCULAR HEMOGLOBIN CONCENTRATION [3]: 37.3 G/DL | MONOCYTE [3]: 0.67% | NEUTROPHIL [3]: 7.33% | NUCLEATED RED BLOOD CELLS [3]: 0 /100WBC | PLATELET COUNT [3]: 1394 x10E3/uL | ALANINE AMINOTRANSFERASE [3]: 52 u/L | ALBUMIN [3]: 4.03 G/DL | ALKALINE PHOSPHATASE [3]: 364.67 u/L | ASPARTATE AMINOTRANSFERASE [3]: 79 u/L | BLOOD UREA NITROGEN [3]: 16.33 mg/dL | CARBON DIOXIDE [3]: 27 mmol/L | CHLORIDE [3]: 100.33 MEQ/L | CHOLESTEROL [3]: 72 mg/dL | CREATINE PHOSPHOKINASE [3]: 274.33 u/L | CREATININE [3]: 0.18 mg/dL | GLUCOSE [3]: 167.67 mg/dL | LACTATE DEHYDROGENASE [3]: 74.33 u/L | LIPASE [3]: 8.67 u/L | PHOSPHORUS [3]: 11.13 mg/dL | POTASSIUM [3]: 5.8 MEQ/L | SODIUM [3]: 142.4 MEQ/L | TOTAL BILIRUBIN [3]: 0.17 mg/dL | TOTAL PROTEIN [3]: 5.53 G/DL | URIC ACID [3]: 1.6 mg/dL | ABSOLUTE BASOPHIL [4]: 0 CELLS/uL | ABSOLUTE EOSINOPHIL [4]: 309 CELLS/uL | ABSOLUTE LYMPHOCYTE [4]: 13777 CELLS/uL | ABSOLUTE MONOCYTE [4]: 0 CELLS/uL | ABSOLUTE SEGMENTED NEUTROPHIL [4]: 1914 CELLS/uL | BASOPHIL [4]: 0% | EOSINOPHIL [4]: 1.67% | ERYTHROCYTE COUNT [4]: 5.78 x10E6/uL | HEMATOCRIT [4]: 35.83% | HEMOGLOBIN [4]: 13.5 G/DL | LEUKOCYTE COUNT [4]: 16 x10E3/uL | LYMPHOCYTE [4]: 87% | MEAN CORPUSCULAR HEMOGLOBIN [4]: 23.37 pg | MEAN CORPUSCULAR HEMOGLOBIN CONCENTRATION [4]: 37.7 G/DL | MONOCYTE [4]: 0% | NEUTROPHIL [4]: 11.33% | NUCLEATED RED BLOOD CELLS [4]: 0.33 /100WBC | PLATELET COUNT [4]: 1184.33 x10E3/uL | ALANINE AMINOTRANSFERASE [4]: 47.67 u/L | ALBUMIN [4]: 4.5 G/DL | ALKALINE PHOSPHATASE [4]: 346 u/L | ASPARTATE AMINOTRANSFERASE [4]: 72 u/L | BLOOD UREA NITROGEN [4]: 16 mg/dL | CARBON DIOXIDE [4]: 27 mmol/L | CHLORIDE [4]: 102.33 MEQ/L | CHOLESTEROL [4]: 65 mg/dL | CREATINE PHOSPHOKINASE [4]: 183.33 u/L | CREATININE [4]: 0.2 mg/dL | GLUCOSE [4]: 176.67 mg/dL | LACTATE DEHYDROGENASE [4]: 90 u/L | LIPASE [4]: 9.33 u/L | PHOSPHORUS [4]: 11.4 mg/dL | POTASSIUM [4]: 6.11 MEQ/L | SODIUM [4]: 146.47 MEQ/L | TOTAL BILIRUBIN [4]: 0.13 mg/dL | TOTAL PROTEIN [4]: 6 G/DL | URIC ACID [4]: 1.7 mg/dL
